{"source": "ChEMBL document CHEMBL1201862", "about": "“PubChem BioAssay data set” (2004)", "key": {"cells": {"experiment": "cells", "format": "functional"}, "[1]": {"target": "DNA dC->dU-editing enzyme APOBEC-3G (Homo sapiens, UniProt Q9HC16)", "sequence (Q9HC16 whole entry)": "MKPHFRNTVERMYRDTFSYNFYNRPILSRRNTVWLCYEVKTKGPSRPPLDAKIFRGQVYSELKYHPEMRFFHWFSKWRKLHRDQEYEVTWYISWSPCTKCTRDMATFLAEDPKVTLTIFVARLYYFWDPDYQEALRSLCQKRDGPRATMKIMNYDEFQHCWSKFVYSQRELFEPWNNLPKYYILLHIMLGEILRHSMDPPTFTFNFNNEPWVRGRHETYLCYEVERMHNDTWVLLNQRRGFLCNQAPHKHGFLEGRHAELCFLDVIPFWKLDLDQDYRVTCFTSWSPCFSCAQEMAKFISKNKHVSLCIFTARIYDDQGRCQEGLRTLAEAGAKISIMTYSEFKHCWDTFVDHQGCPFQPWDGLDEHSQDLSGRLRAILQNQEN", "experiment": "Dose Response confirmation of small molecule APOBEC3G DNA Deaminase Inhibitors via a fluorescence-based single-stranded DNA deaminase assay. [Related pubchem assays (depositor defined):AID493012, AID493028]", "format": "functional"}, "Aminopeptidase N": {"target": "T1, Aminopeptidase N (Plasmodium falciparum FcB1/Columbia, UniProt O96935)", "T1 sequence (O96935 whole entry)": "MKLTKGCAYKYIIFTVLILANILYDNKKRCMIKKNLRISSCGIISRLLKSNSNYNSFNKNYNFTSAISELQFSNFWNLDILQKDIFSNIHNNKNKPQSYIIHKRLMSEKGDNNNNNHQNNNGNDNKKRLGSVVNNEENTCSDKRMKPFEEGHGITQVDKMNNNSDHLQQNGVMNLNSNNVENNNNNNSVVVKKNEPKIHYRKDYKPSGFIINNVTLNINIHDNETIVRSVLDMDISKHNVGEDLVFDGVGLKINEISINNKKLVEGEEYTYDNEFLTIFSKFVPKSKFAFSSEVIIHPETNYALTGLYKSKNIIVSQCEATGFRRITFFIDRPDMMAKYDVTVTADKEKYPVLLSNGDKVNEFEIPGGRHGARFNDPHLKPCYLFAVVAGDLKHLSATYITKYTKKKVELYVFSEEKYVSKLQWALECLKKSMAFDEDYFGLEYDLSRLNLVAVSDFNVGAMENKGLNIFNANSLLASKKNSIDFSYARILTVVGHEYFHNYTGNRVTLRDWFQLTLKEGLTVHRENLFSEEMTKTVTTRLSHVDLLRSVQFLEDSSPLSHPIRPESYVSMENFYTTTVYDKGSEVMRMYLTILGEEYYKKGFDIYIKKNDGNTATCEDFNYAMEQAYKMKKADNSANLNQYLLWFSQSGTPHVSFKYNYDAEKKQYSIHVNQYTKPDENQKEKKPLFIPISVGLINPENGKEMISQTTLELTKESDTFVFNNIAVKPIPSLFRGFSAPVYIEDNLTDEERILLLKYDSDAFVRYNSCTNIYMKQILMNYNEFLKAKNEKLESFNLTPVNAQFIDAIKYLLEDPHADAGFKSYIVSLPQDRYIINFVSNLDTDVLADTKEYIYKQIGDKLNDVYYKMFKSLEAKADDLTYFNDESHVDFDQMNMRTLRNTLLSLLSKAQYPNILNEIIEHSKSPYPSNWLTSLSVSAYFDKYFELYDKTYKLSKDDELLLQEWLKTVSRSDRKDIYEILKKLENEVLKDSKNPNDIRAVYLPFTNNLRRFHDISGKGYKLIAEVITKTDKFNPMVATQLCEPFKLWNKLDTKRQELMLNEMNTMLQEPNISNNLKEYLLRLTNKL", "experiment": "P. falciparum M1AAP inhibitors, biochemical, fluorogenic H-Leu-NHMec substrate, 1536-well (AID 1445)", "set-up": "species or system Plasmodium falciparum 3D7, 3D7"}, "[2]": {"experiment": "Shn3 3'UTR reporter inhibitors, dose response, cell-based, Clone20 osteoblasts, firefly luciferase, cherry-picked (AID 624132)", "format": "functional"}, "[3]": {"experiment": "cytotoxicity in HEK-293T cells, dose response, cytotoxicity control for BCR NF-kB inhibitor project, luminescence, B-cell screen hits (AID 489021);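 note: cells exposed to compound for about 14 hours before viability readout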", "format": "functional, cell-based"}, "[4]": {"target": "Glucose-6-phosphate 1-dehydrogenase (Homo sapiens, UniProt P11413)", "sequence (P11413 whole entry)": "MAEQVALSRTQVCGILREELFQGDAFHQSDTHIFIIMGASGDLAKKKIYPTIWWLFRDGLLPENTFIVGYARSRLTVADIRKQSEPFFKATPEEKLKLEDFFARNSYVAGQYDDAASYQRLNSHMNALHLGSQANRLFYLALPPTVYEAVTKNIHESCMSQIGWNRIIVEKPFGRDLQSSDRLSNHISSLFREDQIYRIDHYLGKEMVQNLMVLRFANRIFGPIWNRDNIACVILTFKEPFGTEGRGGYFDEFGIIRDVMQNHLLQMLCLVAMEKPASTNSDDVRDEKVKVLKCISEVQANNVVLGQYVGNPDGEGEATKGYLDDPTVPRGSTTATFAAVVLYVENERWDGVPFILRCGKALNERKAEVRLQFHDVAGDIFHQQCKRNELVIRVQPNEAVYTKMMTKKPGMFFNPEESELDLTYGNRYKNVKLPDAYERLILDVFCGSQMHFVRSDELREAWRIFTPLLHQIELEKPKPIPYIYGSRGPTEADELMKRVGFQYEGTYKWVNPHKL", "experiment": "human G6PD enzyme inhibitors, dose response, selectivity assay for P. falciparum G6PD inhibitor project, biochemical, fluorescence (AID 504792)", "format": "functional"}, "[5]": {"target": "T2, Corticotropin-releasing factor receptor 2/Corticotropin-releasing factor-binding protein (Homo sapiens, UniProt P24387+Q13324)", "T2 sequence (Q13324 whole entry)": "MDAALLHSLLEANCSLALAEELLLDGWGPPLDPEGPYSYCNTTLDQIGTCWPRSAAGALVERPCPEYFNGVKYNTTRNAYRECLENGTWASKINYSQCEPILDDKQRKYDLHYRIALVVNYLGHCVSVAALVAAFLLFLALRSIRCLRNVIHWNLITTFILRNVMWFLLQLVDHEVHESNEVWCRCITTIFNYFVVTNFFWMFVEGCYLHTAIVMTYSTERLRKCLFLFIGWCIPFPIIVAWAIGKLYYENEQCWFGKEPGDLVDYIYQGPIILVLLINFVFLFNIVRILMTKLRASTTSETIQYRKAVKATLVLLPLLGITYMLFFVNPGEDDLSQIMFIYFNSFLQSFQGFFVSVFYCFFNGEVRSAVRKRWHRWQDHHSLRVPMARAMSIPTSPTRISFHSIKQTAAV", "T2 sequence (P24387 whole entry)": "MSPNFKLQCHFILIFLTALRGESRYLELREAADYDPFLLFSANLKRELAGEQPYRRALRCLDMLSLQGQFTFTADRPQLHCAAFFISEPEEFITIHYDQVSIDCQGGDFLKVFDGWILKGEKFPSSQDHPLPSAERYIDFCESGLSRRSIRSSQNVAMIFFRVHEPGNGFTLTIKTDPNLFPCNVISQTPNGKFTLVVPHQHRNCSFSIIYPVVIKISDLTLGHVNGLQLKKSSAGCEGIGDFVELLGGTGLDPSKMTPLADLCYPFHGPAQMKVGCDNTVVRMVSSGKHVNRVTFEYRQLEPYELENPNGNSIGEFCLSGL", "experiment": "Dose Response confirmation of uHTS hits for small molecule antagonists of the CRF-binding protein and CRF-R2 receptor complex.", "format": "functional", "settings": "read-out: IC50_Mean"}, "[6]": {"target": "T2, Corticotropin-releasing factor receptor 2/Corticotropin-releasing factor-binding protein", "experiment": "activators of CRF receptor 2 with binding protein – uHTS hits, confirmation (AID 602473)", "format": "functional", "settings": "read-out: EC50_Mean"}, "H9c2": {"tested_on": "H9c2", "experiment": "cells", "format": "functional, cell-based", "settings": "Rattus norvegicus, H9c2, Myocardium"}, "Vero": {"tested_on": "Vero", "experiment": "cells", "format": "functional", "settings": "Chlorocebus sabaeus"}, "HEK293 [7]": {"tested_on": "HEK293", "experiment": "NOD1 signaling inhibitors, primary screen, cell-based, luminescence, uHTS (AID 1578)", "format": "functional", "settings": "Homo sapiens"}, "HEK293 [8]": {"tested_on": "HEK293", "experiment": "cells", "format": "functional, cell-based", "settings": "Homo sapiens"}, "HEK293 [9]": {"tested_on": "HEK293", "experiment": "cells", "format": "functional, cell-based", "settings": "Homo sapiens", "remark": "listed apart in the source"}, "[10]": {"target": "Nucleotide-binding oligomerization domain-containing protein 2 (Homo sapiens, UniProt Q9HC29)", "sequence (Q9HC29 whole entry, the tested form may be a part)": "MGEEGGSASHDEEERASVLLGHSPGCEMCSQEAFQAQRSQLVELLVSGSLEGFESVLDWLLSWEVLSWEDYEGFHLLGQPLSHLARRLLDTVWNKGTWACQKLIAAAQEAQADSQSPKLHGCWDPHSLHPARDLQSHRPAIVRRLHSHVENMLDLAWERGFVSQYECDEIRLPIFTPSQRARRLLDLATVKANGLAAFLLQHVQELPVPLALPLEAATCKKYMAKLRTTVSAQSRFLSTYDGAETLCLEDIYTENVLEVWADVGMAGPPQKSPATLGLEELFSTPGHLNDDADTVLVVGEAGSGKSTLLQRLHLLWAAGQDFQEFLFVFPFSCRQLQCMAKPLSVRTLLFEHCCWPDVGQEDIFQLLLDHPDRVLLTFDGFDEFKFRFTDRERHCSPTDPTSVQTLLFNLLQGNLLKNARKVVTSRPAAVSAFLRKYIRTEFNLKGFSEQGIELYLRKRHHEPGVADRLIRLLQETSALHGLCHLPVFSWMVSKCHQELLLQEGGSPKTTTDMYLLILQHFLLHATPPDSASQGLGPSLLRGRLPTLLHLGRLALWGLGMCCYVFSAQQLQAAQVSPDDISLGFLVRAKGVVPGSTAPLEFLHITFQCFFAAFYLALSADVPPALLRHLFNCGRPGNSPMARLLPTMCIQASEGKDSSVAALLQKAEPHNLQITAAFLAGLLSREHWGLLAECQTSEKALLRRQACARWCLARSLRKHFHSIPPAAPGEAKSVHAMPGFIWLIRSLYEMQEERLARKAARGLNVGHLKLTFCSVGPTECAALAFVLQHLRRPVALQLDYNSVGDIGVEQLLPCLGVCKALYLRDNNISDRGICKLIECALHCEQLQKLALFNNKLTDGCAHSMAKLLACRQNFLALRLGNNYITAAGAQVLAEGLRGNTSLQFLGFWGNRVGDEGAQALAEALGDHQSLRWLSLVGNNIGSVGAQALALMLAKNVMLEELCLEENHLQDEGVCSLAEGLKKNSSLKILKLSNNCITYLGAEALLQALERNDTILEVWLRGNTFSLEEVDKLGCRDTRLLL", "experiment": "NOD2 signaling inhibitors, cell-based, luminescence, uHTS, HEK293 (AID 1566)", "format": "functional"}, "HEK293 [11]": {"tested_on": "HEK293", "experiment": "NOD2 signaling inhibitors in MDP-stimulated cells, cell-based, uHTS, luminescence (AID 2001)", "format": "functional", "settings": "Homo sapiens"}, "HEK293 [12]": {"tested_on": "HEK293", "experiment": "cells", "format": "functional, cell-based", "settings": "Homo sapiens", "remark": "listed apart in the source"}}, "note": "The source made the active and inactive calls.", "data": [{"compound": "O=C(Oc1ccc(F)cc1)c1ccc2c(=O)n3c(nc2c1)CCC3", "values": [{"measurement": "IC50", "setting": "cells", "result": "3.88 µM (active)"}]}, {"compound": "COC(=O)CCC(=O)Nc1sc(C)c(C)c1C(N)=O", "values": [{"measurement": "IC50", "setting": "[1]", "result": "38.2 µM (active)"}]}, {"compound": "O=C(CSc1nc2ccsc2c(=O)n1NC(=O)c1ccccc1)Nc1nccs1", "values": [{"measurement": "IC50", "setting": "Aminopeptidase N", "result": "37.4 µM (active)"}]}, {"compound": "CCOC(=O)c1c(C)[nH]c(C(=O)COC(=O)[C@H](C)N2C(=O)C3CCCCC3C2=O)c1C", "note": "(stereo not given in full)", "values": [{"measurement": "AC50", "setting": "[2]", "result": "46.8 µM (active)"}]}, {"compound": "Cc1cc(-c2cc(C(=O)NCc3ccccc3)on2)nc(S(C)(=O)=O)n1", "values": [{"measurement": "IC50", "setting": "[3]", "result": "> 80 µM (inactive)"}]}, {"compound": "O=C(Nc1nnc(S(=O)(=O)N2CCCCC2)s1)c1ccc(Cl)cc1", "values": [{"measurement": "IC50", "setting": "[4]", "result": "> 80 µM (inactive)"}, {"measurement": "IC50", "setting": "[5]", "result": "> 47.1 µM (inactive)"}, {"measurement": "EC50", "setting": "[6]", "result": "> 53 µM (inactive)"}]}, {"compound": "O=C(CNC(=O)c1cccs1)NCC(=O)OCC(=O)c1ccc([N+](=O)[O-])cc1", "values": [{"measurement": "IC50", "setting": "[4]", "result": "> 80 µM (inactive)"}]}, {"compound": "O=C1CC(Sc2nc[nH]n2)C(=O)N1c1ccccc1", "note": "(stereo not given)", "values": [{"measurement": "IC50", "setting": "[1]", "result": "55.7 µM (active)"}]}, {"compound": "COC(=O)c1cc(NC(=O)Nc2cc(OC)ccc2OC)cc(C(=O)OC)c1", "values": [{"measurement": "IC50", "setting": "[3]", "result": "> 80 µM (inactive)"}, {"measurement": "IC50", "setting": "H9c2", "result": "16.3 µM (active)"}]}, {"compound": "O=S(=O)(c1ccc(NC(=S)NC23CC4CC(CC(C4)C2)C3)cc1)N1CCCCC1", "values": [{"measurement": "CC50", "setting": "Vero", "result": "8.76 µM (active)"}]}, {"compound": "NS(=O)(=O)c1ccc(CCNC(=O)CCCn2c(SCC(=O)N3CCCC3)nc3ccsc3c2=O)cc1", "values": [{"measurement": "IC50", "setting": "Aminopeptidase N", "result": "97.7 µM (active)"}]}, {"compound": "COc1cccc(OCCOc2ccc(/C=C3/SC(=S)NC3=O)cc2)c1", "values": [{"measurement": "EC50", "setting": "HEK293 [7]", "result": "4.27 µM (active)"}, {"measurement": "IC50", "setting": "HEK293 [8]", "result": "6.04 µM (active)"}, {"measurement": "IC50", "setting": "HEK293 [9]", "result": "16.5 µM (active)"}, {"measurement": "EC50", "setting": "[10]", "result": "9.33 µM (active)"}, {"measurement": "IC50", "setting": "HEK293 [11]", "result": "6.67 µM (inactive)"}, {"measurement": "IC50", "setting": "HEK293 [12]", "result": "> 20 µM (inactive)"}]}]}
